Experimental findings from ChEMBL document CHEMBL4619731, “Identification of a new class of non-electrophilic TRPA1 agonists by a structure-based virtual screening approach” (Bioorg Med Chem Lett, 2020) are described below.

The target in the assay is Transient receptor potential cation channel subfamily A member 1 (Homo sapiens) (UniProt O75762). Put plainly: Agonist activity at TRPA1 (unknown origin) at 1000 uM relative to AITC.
Sequence of Transient receptor potential cation channel subfamily A member 1 (Homo sapiens) (O75762 whole entry): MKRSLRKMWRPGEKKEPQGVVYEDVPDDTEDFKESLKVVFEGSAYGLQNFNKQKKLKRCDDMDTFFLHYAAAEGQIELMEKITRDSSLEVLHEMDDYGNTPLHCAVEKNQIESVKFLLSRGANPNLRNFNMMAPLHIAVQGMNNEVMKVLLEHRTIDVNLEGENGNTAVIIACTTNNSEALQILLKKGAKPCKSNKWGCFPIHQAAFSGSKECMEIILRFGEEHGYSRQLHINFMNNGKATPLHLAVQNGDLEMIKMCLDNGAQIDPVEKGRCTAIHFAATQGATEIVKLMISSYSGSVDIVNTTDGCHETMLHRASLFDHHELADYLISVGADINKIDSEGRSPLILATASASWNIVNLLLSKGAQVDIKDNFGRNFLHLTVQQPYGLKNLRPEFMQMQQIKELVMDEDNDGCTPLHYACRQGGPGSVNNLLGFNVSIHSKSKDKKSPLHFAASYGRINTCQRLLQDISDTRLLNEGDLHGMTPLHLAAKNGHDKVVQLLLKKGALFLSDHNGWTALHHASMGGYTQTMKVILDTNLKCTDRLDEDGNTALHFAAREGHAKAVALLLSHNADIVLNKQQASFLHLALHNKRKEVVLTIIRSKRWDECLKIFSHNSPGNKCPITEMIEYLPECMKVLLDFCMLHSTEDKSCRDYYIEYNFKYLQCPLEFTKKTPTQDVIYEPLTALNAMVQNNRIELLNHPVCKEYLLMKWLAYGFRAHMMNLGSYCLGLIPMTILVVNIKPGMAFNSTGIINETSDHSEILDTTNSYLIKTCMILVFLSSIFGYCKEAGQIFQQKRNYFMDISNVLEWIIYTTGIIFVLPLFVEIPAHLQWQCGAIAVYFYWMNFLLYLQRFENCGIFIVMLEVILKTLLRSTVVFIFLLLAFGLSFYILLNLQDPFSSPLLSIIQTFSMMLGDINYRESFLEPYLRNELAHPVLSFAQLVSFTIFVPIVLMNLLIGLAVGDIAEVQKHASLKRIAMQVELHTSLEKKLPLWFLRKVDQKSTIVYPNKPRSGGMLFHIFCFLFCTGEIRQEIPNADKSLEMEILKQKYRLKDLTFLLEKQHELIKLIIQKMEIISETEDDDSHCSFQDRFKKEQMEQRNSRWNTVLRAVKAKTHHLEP
Turning to `CCCC(=O)OCC(C)C`, the Activity was found to be 19%.

In the case of `CCCCCCCOC(C)=O`, the Activity amounted to 8%.

The compound `CCCCCCCCCC(=O)OCCC(C)C` had an Activity of 13%.

As to `CCCC(=O)OCCc1ccccc1`, the Activity is 62%.

On to `CCCCCCCC(=O)OCCC(C)C`, for which the Activity worked out at 12%.

For `O=c1cc(-c2ccc(O)cc2)oc2c([C@@H]3O[C@H](CO)[C@@H](O)[C@H](O)[C@H]3O)c(O)cc(O)c12`, the Activity amounted to 15%.

As to `CCCCCCCCCCCCCC(C)=O`, the Activity came out at 10%.

`CCCCCCCCOC(C)=O`: the Activity turned out to be 8%.

Compound `CC(C)C(=O)OCCc1ccccc1` returned an Activity of 37%.

With `CCCCCCCCCCCCCC(=O)OCC`, the Activity was determined as 17%.

Take `CCCCCCCCCCCCCC(=O)O`: the Activity came to 23%.

The compound `Oc1cc(O)c2c(c1)O[C@H](c1ccc(O)c(O)c1)[C@H](O)[C@H]2c1c(O)cc(O)c2c1O[C@H](c1ccc(O)c(O)c1)[C@H](O)C2` showed an Activity of 22%.

Take `CCCCCCCC1CCCC(=O)O1` (centres undefined): the Activity stood at 20%.

`CCCCCCCC(=O)OC` came in with an Activity of 33%.

In turn, `CCCCCCCCC(=O)OC` had an Activity of 39%.

As to `CCCCCCCCCCCO`, the Activity stood at 20%.

Turning to `CCCCC(CC)COC(=O)c1ccccc1O` (centres undefined), the Activity amounted to 14%.

The compound `CCCCCCCCC(=O)OCC` registered an Activity of 12%.

On to `CCCCCCCCCCCC(C)=O`, for which the Activity is 13%.

`CCCCCCCCC(C)=O` yielded an Activity of 11%.

Compound `O=c1cc(-c2ccc(O)cc2)oc2cc(O[C@@H]3O[C@H](CO)[C@@H](O)[C@H](O)[C@H]3O)c([C@@H]3O[C@H](CO)[C@@H](O)[C@H](O)[C@H]3O)c(O)c12` showed an Activity of 20%.

`C/C=C/C(=O)C1=C(C)C=CCC1(C)C` registered an Activity of 13%.

With `CCCCCCCCCC(=O)OCC`, the Activity came to 16%.

In turn, `O=C(O[C@H]1Cc2c(O)cc(O)cc2O[C@@H]1c1ccc(O)c(O)c1)c1cc(O)c(O)c(O)c1` gave an Activity of 15%.

In turn, `CCCCC(CC)CO` (centres undefined) displayed an Activity of 60%.

With `CCCCCCCCCC(C)=O`, the Activity turned out to be 15%.

In turn, `CCCCCCCCOC(=O)CCC` came in with an Activity of 13%.

Turning to `CCCCCCCC1CCC(=O)O1` (centres undefined), the Activity is 27%.

Compound `OC[C@H]1O[C@H](O[C@H]2[C@H](O)[C@@H](O)[C@@H](O[C@H]3[C@H](O)[C@@H](O)C(O)O[C@@H]3CO)O[C@@H]2CO)[C@H](O)[C@@H](O)[C@@H]1O` (some centres undefined) yielded an Activity of 14%.

The compound `CCCCCC(=O)OCCC(C)C` yielded an Activity of 16%.

The compound `C[C@@H]1O[C@@H](O[C@H]2[C@H](Oc3cc(O)c4c(c3)O[C@H](c3ccc(O)cc3)CC4=O)O[C@H](CO)[C@@H](O)[C@@H]2O)[C@H](O)[C@H](O)[C@H]1O` displayed an Activity of 20%.

Take `CCOC(=O)CC(O)(CC(=O)OCC)C(=O)OCC`: the Activity was 18%.

The compound `CC(O)CO` (centres undefined) gave an Activity of 12%.

On to `CCCCCCCC(=O)CC`, for which the Activity was determined as 15%.

Consider `CCCCCCCC(=O)OCC`, for which the Activity came out at 9%.

Regarding `O=c1c(O[C@@H]2O[C@@H](CO)[C@H](O)[C@H]2O)c(-c2ccc(O)c(O)c2)oc2cc(O)cc(O)c12`, the Activity is 41%.

Turning to `CC(=O)OCC(COC(C)=O)OC(C)=O`, the Activity turned out to be 17%.

Regarding `CCOC(=O)c1ccco1`, the Activity amounted to 12%.

The compound `COc1cc(C2OCC3C(c4cc(OC)c(O)c(OC)c4)OCC23)cc(OC)c1O` (centres undefined) returned an Activity of 26%.

The compound `O=c1ccn([C@@H]2O[C@H](CO)[C@@H](O)[C@H]2O)c(=O)[nH]1` yielded an Activity of 11%.

In turn, `CCCCCCCCCC(C)O` (centres undefined) returned an Activity of 16%.

As for `CCCCCCCCCC(=O)OC`, the Activity worked out at 14%.

For the compound `CCCCCCCCCCC(C)=O`, the Activity is 13%.

On to `CCCCCC(=O)OCC(C)C`, for which the Activity turned out to be 23%.

For the compound `CCCCCCCCCCO`, the Activity was found to be 71%.

`CCCCCCCCCCCCCCCC(=O)OC` registered an Activity of 17%.

In turn, `CC(=O)OC(C)C` had an Activity of 10%.

The compound `CCCCCCCCCCCCO` displayed an Activity of 12%.

With `CCCCCCCCCCCC(=O)OCC`, the Activity is 15%.
